Experimental data published in patent US6653290B2, “Tumor proliferation inhibitors” (Bristol-Myers Squibb Company, priority 2000, dated 2003).

Columns and labels:
murine P388 cell line = experiment: Cell-based cytotoxicity (XTT proliferation inhibition) against murine P388 cell line; details: Mus musculus, P388 cells, 72 h incubation, absorbance at 450 nm, read-out: IC50 (drug concentration required to inhibit cell proliferation to 50% of untreated control cells)
Experimental: The proliferation inhibition activity against murine P388 cell line was measured as follows. Evaluation of a soluble tetrazolium/formazan assay for cell growth and drug sensitivity in culture, using human and other tumor cell lines, was done according to the procedure described in Cancer Res. 1988, 48, 4827-4833. Cells were plated at 4000 cells/well in 96 well microtiter plates and 24 h later drugs were added and serially diluted. The cells were incubated at 37° C. for 72 h, at which time a tetrazolium dye, XTT, containing phenazine methosulfate was added. A dehydrogenase enzyme in live cells reduced the XTT to a form that absorbs light at 450 nm, which could be quantitated spectrophotometrically. The greater the absorbance the greater the number of live cells. The results are expressed as an IC50, which is the drug concentration required to inhibit cell proliferation (i.e., absorbance at 450 nm) to 50% of that of untreated control cells.

[1] = molecular target: T1, purified human topoisomerase I (Homo sapiens, UniProt P11387); experiment: Topoisomerase I activity (in vitro): compound-induced, topoisomerase I-mediated single strand breaks in PM2 DNA; type: biochemical; details: purified human topoisomerase I (Topogen), 30 minutes at 37° C., read-out: EC50 (median effective concentration for inducing topoisomerase I-mediated single strand breaks in DNA)
T1 construct: purchased Topogen
T1 sequence (P11387 1-765): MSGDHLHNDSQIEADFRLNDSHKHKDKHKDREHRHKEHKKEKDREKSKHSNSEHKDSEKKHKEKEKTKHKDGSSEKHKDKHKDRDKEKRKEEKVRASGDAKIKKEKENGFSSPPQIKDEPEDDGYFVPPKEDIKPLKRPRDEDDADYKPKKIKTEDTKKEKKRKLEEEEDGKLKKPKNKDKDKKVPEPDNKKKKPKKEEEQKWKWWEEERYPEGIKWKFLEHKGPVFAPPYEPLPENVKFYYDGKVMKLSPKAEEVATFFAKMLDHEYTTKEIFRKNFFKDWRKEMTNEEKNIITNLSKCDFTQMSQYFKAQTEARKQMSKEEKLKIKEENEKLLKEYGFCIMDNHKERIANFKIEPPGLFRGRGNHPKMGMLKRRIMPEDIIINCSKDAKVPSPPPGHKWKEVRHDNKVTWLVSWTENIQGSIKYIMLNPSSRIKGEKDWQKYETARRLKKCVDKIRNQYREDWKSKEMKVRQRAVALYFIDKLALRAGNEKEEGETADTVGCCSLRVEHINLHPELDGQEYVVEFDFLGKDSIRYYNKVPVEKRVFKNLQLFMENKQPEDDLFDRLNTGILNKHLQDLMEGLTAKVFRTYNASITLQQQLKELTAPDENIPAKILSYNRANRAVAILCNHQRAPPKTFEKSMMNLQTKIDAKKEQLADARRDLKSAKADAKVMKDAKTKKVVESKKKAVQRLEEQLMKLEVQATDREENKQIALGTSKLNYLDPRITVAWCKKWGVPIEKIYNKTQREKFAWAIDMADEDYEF
Experimental: Topoisomerase I activity was measured as described below. The procedure for assaying compound-induced, topoisomerase I-mediated single strand breaks in DNA was essentially that described by Hsiang, et al., (J. Biol. Chem. 1985, 260,14873-14878). Samples dissolved in 100% DMSO as either 10 μM or 10 mg/ml solutions, unless otherwise stated, were diluted in Tris-EDTA buffer. Marine bacteriophage PM2 DNA (Boehringer Mannheim) was also diluted in Tris-EDTA buffer to a concentration of 0.02 μg/μl. Different dilutions of compound being evaluated were mixed with diluted DNA and this mixture was added to 1000 unit (one unit of enzyme activity is defined as the amount capable of relaxing 100 ng of supercoiled DNA in approximately 30 minutes at 37° C.) aliquots of purified human topoisomerase I (Topogen) in 2×reaction buffer to start the reaction. The compound—DNA—enzyme mixture was incubated for 30 minutes at 37° C. before stopping the reaction with warm stop buffer containing sodium dodecyl sulfate and proteinase K (Sigma). These mixtures were allowed to incubate at 37° C. for another 10 minutes, at which time the mixtures were removed from the waterbath and extracted with a 24:1 mixture of chloroform/isoamyl alcohol. Following centrifugation, aliquots of the aqueous phases were placed in wells of a 0.9% agarose (SeaKem) gel in Tris-borate buffer containing 0.5 μg/ml of ethidium bromide and subjected to electrophoresis for 15 hours to separate the different topological isomers and nicked and broken DNAs. After destaining the gel in water, the ethidium bromide stained DNA reaction products were visualized by exposing the gel to UV irradiation. Negatives of photographs of the irradiated gels were scanned with a densitometer and areas under the peaks were calculated in order to obtain percent single strand DNA break formation for each sample. A median effective concentration (EC50) was obtained for each compound by interpolation between points of the resulting dose-effect curve which defines the potency of the compound for its effect in inducing topoisomerase I-mediated single strand breaks in DNA. The topoisomerase I activity for selected compounds of the present invention is shown below in Table I.

Structure (SMILES) | IC50 (murine P388 cell line) [nM] | EC50 [1] [nM]
O=C1NC(=O)c2c1c1c3cc(F)c(F)cc3[nH]c1c1c2c2cc(F)c(F)cc2n1[C@@H]1OC(CO)(CO)C[C@H](O)[C@H]1O [Example 1, 2,3,9, 10-Tetrafluoro-12-[5-C-(hydroxymethyl)-4-deoxy-β-D-glucopyranosyl]-indolo[2,3-a]pyrrolo[3,4-c]carbazole-5,7-dione] | 35 | 40
CO[C@@]1(C)C[C@H](O)[C@@H](O)[C@H](n2c3cc(F)c(F)cc3c3c4c(c5c6cc(F)c(F)cc6[nH]c5c32)C(=O)NC4=O)O1 [Example 6, 2 , 3,9, 10-Tetrafluoro-12-(4,6-dideoxy-5-methoxy-β-D-glucopyranosyl) -6,7, 12, 13-tetrahydro(5H)indolo[2,3-a]pyrrolo[3,4-c]carbazole-5,7-dione] | 50 | 70
CO[C@]1(CO)O[C@@H](n2c3cc(F)c(F)cc3c3c4c(c5c6cc(F)c(F)cc6[nH]c5c32)C(=O)NC4=O)[C@H](O)[C@@H](O)[C@@H]1O [Example 7, 2,3,9, 10-Tetrafluoro-12-(5-methoxy-β-D-glucopyranosyl)-6,7, 12, 13-tetrahydro(5H)indolo[2,3-a]pyrrolo[3,4-c]carbazole-5,7-dione] | 250 | 270
CO[C@@]1(CO)C[C@H](O)[C@@H](O)[C@H](n2c3cc(F)c(F)cc3c3c4c(c5c6cc(F)c(F)cc6[nH]c5c32)C(=O)NC4=O)O1 [Example 8, 2,3,9, 10-Tetrafluoro-12-(4-deoxy-5-methoxy-β-D-glucopyranosyl) -6,7, 12, 13-tetrahydro(5H)indolo[2,3-a]pyrrolo[3,4-c]carbazole-5,7-dione] | 35 | 50
CO[C@@]1(C)C[C@H](O)[C@@H](O)[C@H](n2c3ccc(F)cc3c3c4c(c5c6cc(F)ccc6[nH]c5c32)C(=O)NC4=O)O1 [Example 9, 3,9-Difluoro-12-(4,6-dideoxy-5-methoxy-β-D-glucopyranosyl)-6,7, 12, 13-tetrahydro(5H)indolo[2,3-a]pyrrolo[3,4-c]carbazole-5,7-dione] | 7 | –
CCOC1(C)CC(O)C(O)C(n2c3ccc(F)cc3c3c4c(c5c6cc(F)ccc6[nH]c5c32)C(=O)NC4=O)O1 [Example 10, 3,9-Difluoro-12-(4,6-dideoxy-5-ethoxy-6-D-glucopyranosyl)-6,7, 12, 13-tetrahydro(5H)indolo[2,3-a]pyrrolo[3,4-c]carbazole-5,7-dione] | 55 | –
CC(C)OC1(C)CC(O)C(O)C(n2c3ccc(F)cc3c3c4c(c5c6cc(F)ccc6[nH]c5c32)C(=O)NC4=O)O1 [Example 11, 3,9-Difluoro-12-(4,6-dideoxy-5-isopropoxy-δ-D-glucopyranosyl)-6,7, 12, 13-tetrahydro(5H)indolo[2,3-a]pyrrolo[3,4-c]carbazole-5,7-dione] | 200 | –
COC1(C)CC(O)C(O)C(n2c3cc(F)c(F)cc3c3c4c(c5c6cc(F)c(F)cc6sc5c32)C(=O)NC4=O)O1 [Example 12, 2,3,9, 10-Tetrafluoro-12-(4,6-dideoxy-5-methoxy-δ-D-glucopyranosyl)-6,7, 12, 13-tetrahydro(5H)benzo[b]thieno[2,3-a]pyrrolo[3,4-c]carbazole-5,7-dione] | 69 | –
